Values joined by “and” are separate entries in the source; they are usually repeats but may differ in a detail not shown here. Equal entries are not always repeated. Where two headings read alike, the source gives them in different places. *1 amine or outer side, *2 acyl side, *3 side chain or, on linkers, in order; H or OH if unused. Where a SMILES comes first, the peptide text is derived from it. Bridges are numbered along the chain shown (N, C = ends). Roman numbers before positions name the chains, in order. [ ]: non-standard residue; d: D form. X6 = O=C([C@@H](N[*:1])[C@H](OCC=[*:3])c1ccccc1)[*:2]; NMeLeu(5-OH,4R) = CN[C@@H](C[C@@H](C)CO)C(=O)O; Trp(1-Me) = Cn1cc(C[C@H](N)C(=O)O)c2ccccc21; NMeL = CN[C@@H](CC(C)C)C(=O)O
Tests used:
[1] = Hepatocyte stability, mice; assay type: in vitro ADME
Procedure, shortened: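 1 µM cpd (DMSO <0.05% final), cryopreserved hepatocytes ~1e6 cells/mL, 50% serum, pH 7.4, 37 °C/5–10% CO2; up to 6 h, 6 timepoints; ACN quench, HPLC-MS/MS; t1/2 → CL via well-stirred model, % Qh.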

[2] = assay type: in vitro ADME, Rat
Procedure, shortened: (§1)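 Clearance, expressed as % liver blood flow (%Qh), derived by the well-stirred model from first-order half-lives. Depletion monitored by HPLC-MS/MS in acetonitrile-stopped samples over time; 37 °C, NADPH 1 mM, microsomes 0.5 mg/ml, compound 1 µmol/l, Tris-HCl pH 7.5 with MgCl2.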

[3] = target: ClpC1 NTD protein (M. tuberculosis) (Mycobacterium tuberculosis, UniProt P9WPC9); assay: biochemical; assay type: binding
Sequence of ClpC1 NTD protein (M. tuberculosis) (P9WPC9 1-156, looked up, natural form): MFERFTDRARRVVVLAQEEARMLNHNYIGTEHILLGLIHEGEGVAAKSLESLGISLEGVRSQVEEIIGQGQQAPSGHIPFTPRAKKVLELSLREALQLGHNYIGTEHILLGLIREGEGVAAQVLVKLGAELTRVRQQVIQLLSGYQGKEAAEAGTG

[4] = assay type: in vitro ADME, Mice
Procedure, shortened: as §1

Caco-2 monolayers = assay: in vitro; conditions: mean value of P(A−B) and P(B−A)
Procedure, shortened: (§2)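 Values are bidirectional Caco-2 apparent permeabilities, P(A−B) and P(B−A), given in 10^-6 cm s-1. The efflux ratio divides P(B−A) by P(A−B), and intrinsic permeability averages the two directions.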

in vitro = conditions: human
Procedure, shortened: as §2

[5] = target: ClpC1-NTD substrate, M. tuberculosis ClpC1P1P2 (Mycobacterium tuberculosis, UniProt P9WPC9); assay: biochemical; assay type: biochemical; conditions: Mtb
Sequence of ClpC1-NTD substrate, M. tuberculosis ClpC1P1P2 (P9WPC5 whole entry): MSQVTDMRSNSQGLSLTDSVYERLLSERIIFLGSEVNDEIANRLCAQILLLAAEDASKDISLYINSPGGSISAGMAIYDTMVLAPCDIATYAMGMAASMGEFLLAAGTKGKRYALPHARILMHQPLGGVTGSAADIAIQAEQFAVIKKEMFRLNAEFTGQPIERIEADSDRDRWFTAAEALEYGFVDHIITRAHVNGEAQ
Sequence of ClpC1-NTD substrate, M. tuberculosis ClpC1P1P2 (P9WPC9 whole entry): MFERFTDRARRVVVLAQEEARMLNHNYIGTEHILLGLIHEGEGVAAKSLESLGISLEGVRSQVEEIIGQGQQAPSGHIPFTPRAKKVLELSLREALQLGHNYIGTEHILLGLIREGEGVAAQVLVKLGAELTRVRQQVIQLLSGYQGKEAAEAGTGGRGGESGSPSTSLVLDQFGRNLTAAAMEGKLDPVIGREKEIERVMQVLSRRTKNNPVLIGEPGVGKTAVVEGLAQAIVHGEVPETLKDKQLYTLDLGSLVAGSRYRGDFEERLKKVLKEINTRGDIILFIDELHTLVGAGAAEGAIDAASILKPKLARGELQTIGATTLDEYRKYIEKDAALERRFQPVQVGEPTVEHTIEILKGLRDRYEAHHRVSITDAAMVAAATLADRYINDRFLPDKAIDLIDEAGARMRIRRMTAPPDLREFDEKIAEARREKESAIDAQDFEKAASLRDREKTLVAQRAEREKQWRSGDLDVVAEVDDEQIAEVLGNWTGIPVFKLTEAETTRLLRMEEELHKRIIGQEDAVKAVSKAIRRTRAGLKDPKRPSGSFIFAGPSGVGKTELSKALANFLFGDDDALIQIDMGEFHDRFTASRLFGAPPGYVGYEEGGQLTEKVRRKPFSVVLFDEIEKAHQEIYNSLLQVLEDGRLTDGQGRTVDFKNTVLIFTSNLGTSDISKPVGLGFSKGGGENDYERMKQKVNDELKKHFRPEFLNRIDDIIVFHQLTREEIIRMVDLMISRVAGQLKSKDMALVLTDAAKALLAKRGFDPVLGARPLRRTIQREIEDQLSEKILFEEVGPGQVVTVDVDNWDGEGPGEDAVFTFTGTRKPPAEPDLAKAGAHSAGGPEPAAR
Sequence of ClpC1-NTD substrate, M. tuberculosis ClpC1P1P2 (P9WPC3 whole entry, further chain): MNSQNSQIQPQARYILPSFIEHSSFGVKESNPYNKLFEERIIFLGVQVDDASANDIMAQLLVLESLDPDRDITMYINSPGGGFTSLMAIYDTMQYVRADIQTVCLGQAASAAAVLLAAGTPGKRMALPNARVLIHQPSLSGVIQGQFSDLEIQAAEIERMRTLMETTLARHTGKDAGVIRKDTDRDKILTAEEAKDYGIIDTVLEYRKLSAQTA

[6] = Microsomal stability, human; assay type: in vitro ADME
Procedure, shortened: as §1

[7] = assay type: in vitro ADME, Rat; remark: listed apart in the source
[8] = target: His6-tagged ClpC1-NTD substrate, M. smegmatis ClpC1P1P2 (UniProt A0R574+P9WPC9); assay: biochemical; assay type: biochemical; conditions: Msm; Measurement 1-6; read-out: 1-Dmax, single measurements
Sequence of His6-tagged ClpC1-NTD substrate, M. smegmatis ClpC1P1P2 (P9WPC9 1-156, looked up, natural form): as the sequence (P9WPC9 1-156, looked up, natural form) above
Sequence of His6-tagged ClpC1-NTD substrate, M. smegmatis ClpC1P1P2 (A0R574 whole entry): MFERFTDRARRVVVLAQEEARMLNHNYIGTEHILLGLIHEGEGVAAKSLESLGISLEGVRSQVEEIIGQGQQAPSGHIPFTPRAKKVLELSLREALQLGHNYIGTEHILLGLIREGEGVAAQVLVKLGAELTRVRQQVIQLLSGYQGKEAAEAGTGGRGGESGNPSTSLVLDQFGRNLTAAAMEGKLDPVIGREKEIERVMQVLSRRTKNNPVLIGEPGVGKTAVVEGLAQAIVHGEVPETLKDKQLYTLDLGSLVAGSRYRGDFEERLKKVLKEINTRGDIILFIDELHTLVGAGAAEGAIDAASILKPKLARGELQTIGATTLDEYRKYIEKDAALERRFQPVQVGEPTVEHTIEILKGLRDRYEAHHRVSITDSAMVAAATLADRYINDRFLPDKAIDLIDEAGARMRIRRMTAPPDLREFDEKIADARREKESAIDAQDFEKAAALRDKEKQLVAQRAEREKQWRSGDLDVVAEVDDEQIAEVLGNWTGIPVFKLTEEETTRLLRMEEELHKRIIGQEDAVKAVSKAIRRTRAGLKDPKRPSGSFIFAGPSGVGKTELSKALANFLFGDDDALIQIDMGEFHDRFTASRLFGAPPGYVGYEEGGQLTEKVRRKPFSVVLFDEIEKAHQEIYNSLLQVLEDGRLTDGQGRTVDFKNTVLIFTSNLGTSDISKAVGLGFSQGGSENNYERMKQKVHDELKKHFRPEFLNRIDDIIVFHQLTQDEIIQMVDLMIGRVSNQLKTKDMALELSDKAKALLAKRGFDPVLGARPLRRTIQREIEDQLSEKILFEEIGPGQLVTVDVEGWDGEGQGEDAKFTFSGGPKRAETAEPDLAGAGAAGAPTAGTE

[9] = result in words

SMILES: CC(C)C[C@H]1C(=O)N[C@@H](C(C)C)C(=O)N[C@@H](Cc2cn(C)c3ccccc23)C(=O)N(C)[C@@H](C[C@@H](C)CO)C(=O)N[C@@H](C)C(=O)N[C@@H]([C@H](OC/C=C/CO[C@H](c2ccccc2)[C@@H]2NC(=O)[C@H](C)NC(=O)[C@H](C[C@@H](C)CO)N(C)C(=O)[C@H](Cc3cn(C)c4ccccc34)NC(=O)[C@H](C(C)C)NC(=O)[C@H](CC(C)C)N(C)C(=O)[C@H](C(C)C)NC2=O)c2ccccc2)C(=O)N[C@@H](C(C)C)C(=O)N1C [Compound 17] (I: cyclo(A[X6]V[NMeL]V[Trp(1-Me)][NMeLeu(5-OH,4R)]) / II: cyclo(A[X6]V[NMeL]V[Trp(1-Me)][NMeLeu(5-OH,4R)]); staple (E) I:2-II:2)
- Hepatocyte Stability Mouse QH ([1]; Mouse): 20.539%
- Hepatocyte Mice ([1]; clearance in hepatocytes): 21 %Qh
- Microsomal Stability Rat QH ([2]; Rat): <23.100%
- Microsomal Stability Rat ([2]; clearance in microsomes): < 23 %Qh
- Kd ([3]; SPR (Supplementary Table 1), read-out: KD ClpC1-NTD Mean ± SD): 23 ± 5 nM
- koff ClpC1-NTD ([3]; SPR, single independent measurements): 0.004 s⁻¹
- Kd ([3]; SPR, single independent measurements, read-out: KD ClpC1-NTD): 26.7 nM and 19 nM
- koff ([3]; SPR, single independent measurements, read-out: koff ClpC1-NTD): 0.005 s⁻¹
- Microsomal Stability Mouse QH ([4]; Mouse): <24.200%
- Microsomal Stability Mice ([4]; clearance in microsomes): < 24 %Qh
- Caco-2 Int. Perm (Caco-2 monolayers): 1.7 10-6 cm s-1
- Papp A→B (in vitro; Caco-2, CACO permeability PEAB, apical to basolateral): < 2.5 ×10⁻⁶ cm/s
- Papp B→A (in vitro; Caco-2, Caco-2 permeability P (B-A), basolateral to apical): 0.9 ×10⁻⁶ cm/s
- DC50 ([5]; Measurement 1-4, read-out: DC50, single measurements): > 100000 nM
- DC50 ([5]; mean of the measurements, read-out: DC50, Mean): > 100000 nM
- Microsomal Stability Human QH ([6]; Human): <24.400%
- Microsomal Stability Human ([6]; clearance in microsomes): < 24 %Qh
- Hepatocyte Stability Rat QH ([7]; Rat): 12.036%
- Hepatocyte Rat ([7]; clearance in hepatocytes): 12 %Qh
- 1-Dmax (percent substrate remaining at maximal degradation) [8]: 30.2%
- stability upon storage [9]: compound decomposition upon storage
